# Read-outs that look alike come from different tables or passages of the source.
# Key:
# Assay type in all cases: cell-based
# U138-MG (Glioblastoma) = test: In vitro cytotoxicity, MTT assay, U138-MG; settings: Homo sapiens, read-out: Cytotoxicity
# Protocol: (§1) The in vitro cytotoxicity of a selection of compounds were evaluated in a panel of cell lines using the standard MTT assay for a 72 hour incubation period (Table 2). Free payloads produced cytotoxicities in the nanomolar range.
# (§2) Tumor cell lines were maintained in RPMI1640 medium supplemented with 10% heat-inactivated fetal bovine serum, 2 mM L-glutamine and 1 mM sodium pyruvate. 1800 cells per well were seeded in a volume of 180 μl in a 96-well flat bottom polystyrene plate. The cells were allowed to adhere overnight at 37° C. in a CO2 incubator. Ligands were initially formulated in DMSO, and stocks stored at −80° C. They were then further formulated at lox concentration in RPMI1640 medium. 20 ul of diluted samples were added into each treatment well. On each plate, blank wells with no cells, and untreated wells containing cells, were included. Plates were then cultured at 37° C. in a CO2 incubator for 72 hrs. Cytotoxicity was evaluated using a tetrazolium salt-based assay, the MTT assay. After 72 hours, the supernatant was removed from each well and 200 μl of a sterile filtered 500 μg/ml MTT solution in water added to each well. The plates were then incubated at 37° C. in a CO2 incubator for 4 hrs. The supernatant was then removed and the formazan crystals formed solubilized by adding 150 μl of DMSO to each well. The plate was then read on a plate reader at 540 nm, and percentage cell survival calculated as follows: ((mean absorbance treated wells at concentration x−mean absorbance blank wells)+(mean absorbance untreated wells at concentration x−mean absorbance blank wells))×100. Data were plotted as concentration in nM vs. % cell survival in Microsoft Excel, and IC50 values (concentration where cell survival is reduced by a half) were determined from the graph.
# A431 (Skin) = test: In vitro cytotoxicity, MTT assay, A431; settings: Homo sapiens, read-out: Cytotoxicity
# Protocol: as §1, §2
# REH (ALL) = test: In vitro cytotoxicity, MTT assay, REH; settings: read-out: Cytotoxicity
# Protocol: as §1, §2
# [1] = U138-MG (Glioblastoma), MTT, 72 hour incubation
# [2] = A-431, A431 (Skin), MTT, 72 hour incubation
# [3] = REH (ALL), MTT, 72 hour incubation
smiles,measurement,setting,value
"COc1cc2c(cc1OCCCC(=O)Nc1cc(C(=O)Nc3ccc(-c4cc(C(=O)Nc5ccc(N)cc5)n(C)c4)cc3)n(C)c1)NC[C@@H]1Cc3ccccc3N1C2=O [Compound 106, (S)—N-(4-Aminophenyl)-4-(4-(4-(4-((8-methoxy-6-oxo-11,12,12a,13-tetrahydro-6H-benzo[5,6][1,4]diazepino[1,2-a]indol-9-yl)oxy)butanamido)-1-methyl-1H-pyrrole-2-carboxamido)phenyl)-1-methyl-1H-pyrrole-2-carboxamide]",IC50,U138-MG (Glioblastoma); [1],84 nM
same,IC50,A431 (Skin); [2],26.7 nM
same,IC50,REH (ALL); [3],24 nM
"COc1cc2c(cc1OCCCC(=O)Nc1cc(C(=O)Nc3ccc(-c4cc(C(=O)Nc5ccc(NC(C)=O)cc5)n(C)c4)cc3)n(C)c1)NC[C@@H]1CCCCN1C2=O [Compound 70, (S)—N-(4-Acetamidophenyl)-4-(4-(4-(4-((2-methoxy-12-oxo-5,6,6a,7,8,9,10, 12-octahydrobenzo[e]pyrido[1,2-a][1,4]diazepin-3-yl)oxy)butanamido)-1-methyl-1H-pyrrole-2-carboxamido)phenyl)-1-methyl-1H-pyrrole-2-carboxamide]",IC50,U138-MG (Glioblastoma); [1],93.6 nM
same,IC50,A431 (Skin); [2],11.3 nM
same,IC50,REH (ALL); [3],42.5 nM
"COC(=O)c1nc2cc(NC(=O)c3nc(NC(=O)CCCOc4cc5c(cc4OC)C(=O)N4CCCC[C@H]4CN5)cn3C)ccc2o1 [Compound 61, Methyl (S)-5-(4-(4-((2-methoxy-12-oxo-5,6,6a,7,8,9,10,12-octahydrobenzo[e]pyrido[1,2-a][1,4]diazepin-3-yl)oxy)butanamido)-1-methyl-1H-imidazole-2-carboxamido)benzo[d]oxazole-2-carboxylate]",IC50,U138-MG (Glioblastoma); [1],> 1000 nM
same,IC50,A431 (Skin); [2],> 1000 nM
same,IC50,REH (ALL); [3],> 1000 nM
"COc1cc2c(cc1OCCCC(=O)Nc1cc(C(=O)Nc3ccc(-c4cc(C(=O)Nc5ccc(N)cc5)n(C)c4)cc3)n(C)c1)NC[C@@H]1Cc3ccccc3CN1C2=O [Compound 119, (S)—N-(4-Aminophenyl)-4-(4-(4-(4-((2-methoxy-14-oxo-5,6,6a,7,12,14-hexahydrobenzo[5,6][1,4]diazepino[1,2-b]isoquinolin-3-yl)oxy)butanamido)-1-methyl-1H-pyrrole-2-carboxamido)phenyl)-1-methyl-1H-pyrrole-2-carboxamide]",IC50,U138-MG (Glioblastoma); [1],266 nM
same,IC50,A431 (Skin); [2],43.1 nM
same,IC50,REH (ALL); [3],173 nM
"COc1cc2c(cc1OCCCC(=O)Nc1cc(C(=O)Nc3ccc(-c4cc(C(=O)Nc5ccccc5)n(C)c4)cc3)n(C)c1)NC[C@@H]1CCCCN1C2=O [Compound 67, (S)-4-(4-((2-Methoxy-12-oxo-5,6,6a,7,8,9,10,12-octahydrobenzo[e]pyrido-[1,2-a][1,4]diazepin-3-yl)oxy)butanamido)-1-methyl-N-(4-(1-methyl-5-(phenylcarbamoyl)-1H-pyrrol-3-yl)phenyl)-1H-pyrrole-2-carboxamide]",IC50,"U138-MG (Glioblastoma); U138-MG, 72 h",57.2 nM
same,IC50,"A431 (Skin); A-431, 72 h",25.9 nM
same,IC50,REH (ALL); 72 h,29.4 nM
"COC(=O)c1cc(-c2ccc(NC(=O)c3cc(NC(=O)CCCOc4cc5c(cc4OC)C(=O)N4Cc6ccccc6C[C@H]4CN5)cn3C)cc2)cn1C [Compound 121, Methyl (S)-4-(4-(4-(4-((2-methoxy-14-oxo-5,6,6a,7,12,14-hexahydrobenzo-[5,6][1,4]diazepino[1,2-b]isoquinolin-3-yl)oxy)butanamido)-1-methyl-1H-pyrrole-2-carboxamido)phenyl)-1-methyl-1H-pyrrole-2-carboxylate]",IC50,U138-MG (Glioblastoma); [1],43.8 nM
same,IC50,A431 (Skin); [2],13.4 nM
same,IC50,REH (ALL); [3],11.6 nM
